Measured values as given in patent US11104690B2, “Indazole derivatives useful as inhibitors of diacylglyceride O-acyltransferase 2” (Merck Sharp & Dohme Corp., priority 2016, dated 2021).

target: Human DGAT2 (Homo sapiens (Human), UniProt Q96PD7); assay: DGAT2 Enzymatic Activity Assay (triolein formation, LC/MS/MS); assay type: biochemical; settings: hDGAT2 Sf-9 membrane prep; 25 μM diolein, 10 μM oleoyl-CoA; room temperature
Procedure, shortened: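 Triolein product, measured by LC/MS/MS as a ratio to internal standard, gave % inhibition and 4-parameter IC50. Reaction: 25 μM diolein, 10 μM oleoyl-CoA, 10 ng/μL hDGAT2 Sf-9 membrane, 100 mM Tris.Cl pH 7.0, 20 mM MgCl2, 5% ethanol, room temperature.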

Human DGAT2, sequence (Q96PD7 whole entry): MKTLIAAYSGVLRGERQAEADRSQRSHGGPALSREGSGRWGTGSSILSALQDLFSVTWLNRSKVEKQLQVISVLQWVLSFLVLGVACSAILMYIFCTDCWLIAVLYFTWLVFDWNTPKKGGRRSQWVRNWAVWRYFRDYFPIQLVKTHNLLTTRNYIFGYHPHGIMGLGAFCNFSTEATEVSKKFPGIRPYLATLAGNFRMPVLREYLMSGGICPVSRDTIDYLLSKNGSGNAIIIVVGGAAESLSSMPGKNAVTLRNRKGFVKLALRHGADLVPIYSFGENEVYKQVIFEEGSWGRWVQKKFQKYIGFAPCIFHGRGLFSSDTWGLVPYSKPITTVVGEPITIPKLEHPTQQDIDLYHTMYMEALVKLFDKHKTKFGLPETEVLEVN

Row | SMILES | IC50 [nM]
1 | C[C@@H](NC(=O)c1ccc2c(-c3ccccc3Cl)nn(-c3ccc(F)cc3)c2c1)[C@@H](O)c1ccccc1 [Example 106, 3-(2-chlorophenyl)-1-(4-fluorophenyl)-N-[(1R,2S)-2-hydroxy-1-methyl-2-phenylethyl]-1H-indazole-6-carboxamide] | 832
2 | C[C@@H](NC(=O)c1ccc2c(-c3ccccc3Cl)nn(-c3ccc(F)cc3)c2c1)[C@H](O)c1ccccc1 [Example 107, 3-(2-chlorophenyl)-1-(4-fluorophenyl)-N-[(1R,2R)-2-hydroxy-1-methyl-2-phenylethyl]-1H-indazole-6-carboxamide] | 305
3 | O=C(NC1(c2ccc(Br)cc2)CC(O)C1)c1ccc2c(-c3ccccc3Cl)nn(-c3ccc(F)cc3)c2c1 (stereo not shown) [Example 108, N-[1-(4-bromophenyl)-3-hydroxycyclobutyl]-3-(2-chlorophenyl)-1-(4-fluorophenyl)-1H-indazole-6-carboxamide] | 393
4 | CO[C@@H]1C[C@H](NC(=O)c2ccc3c(-c4ccccc4Cl)nn(-c4ccc(F)cc4)c3c2)[C@H](O)[C@H](C)O1 [Example 111, 3-(2-chlorophenyl)-1-(4-fluorophenyl)-N-((2S,3S,4S,6S)-3-hydroxy-6-methoxy-2-methyltetrahydro-2H-pyran-4-yl)-1H-indazole-6-carboxamide] | 194
5 | O=C(NCC1(O)CC1)c1ccc2c(-c3ccccc3Cl)nn(-c3ccc(F)cc3)c2c1 [Example 114, 3-(2-chlorophenyl)-1-(4-fluorophenyl)-N-[(1-hydroxycyclopropyl)methyl]-1H-indazole-6-carboxamide] | 627
6 | O=C(N[C@@H]1CCC[C@@H]1O)c1ccc2c(-c3ccccc3Cl)nn(-c3ccc(F)cc3)c2c1 [Example 115, 3-(2-chlorophenyl)-1-(4-fluorophenyl)-N-[(1R,2S)-2-hydroxycyclopentyl]-1H-indazole-6-carboxamide] | 578
7 | N#Cc1cccc(-c2nn(-c3ccc(F)cc3)c3cc(C(=O)NC4CCS(=O)(=O)C4)ccc23)c1 (stereo not shown) [Example 116, 3-(3-cyanophenyl)-N-(1,1-dioxidotetrahydrothiophen-3-yl)-1-(4-fluorophenyl)-1H-indazole-6-carboxamide] | 359
8 | CC(C)[C@@H](CO)NC(=O)c1ccc2c(-c3cc(C#N)ccc3Cl)nn(-c3ccc(F)cc3)c2c1 [Example 123, 3-(2-chloro-5-cyanophenyl)-1-(4-fluorophenyl)-N-[(1S)-1-(hydroxymethyl)-2-methylpropyl]-1H-indazole-6-carboxamide] | 3.8
9 | O=C(NC1CCS(=O)(=O)C1)c1ccc2c(-c3ccccc3Cl)nn(Cc3ccc(Cl)cc3)c2c1 (stereo not shown) [Example 168, 1-(4-chlorobenzyl)-3-(2-chlorophenyl)-N-(1,1-dioxidotetrahydrothiophen-3-yl)-1H-indazole-6-carboxamide] | 455
10 | CC(C)n1nc(-c2ccccc2Cl)c2ccc(C(=O)NC3CCS(=O)(=O)C3)cc21 (stereo not shown) [Example 169, 3-(2-chlorophenyl)-N-(1,1-dioxidotetrahydrothiophen-3-yl)-1-(1-methylethyl)-1H-indazole-6-carboxamide] | 364
11 | O=C(NC1CCS(=O)(=O)C1)c1ccc2c(-c3ccccc3Cl)nn(Cc3ccc(F)cc3)c2c1 (stereo not shown) [Example 170, 3-(2-chlorophenyl)-N-(1,1-dioxidotetrahydrothiophen-3-yl)-1-(4-fluorobenzyl)-1H-indazole-6-carboxamide] | 179
12 | CC1(NC(=O)c2ccc3c(-c4ccccc4Cl)nn(-c4cscn4)c3c2)CCS(=O)(=O)C1 (stereo not shown) [Example 179, 3-(2-Chlorophenyl)-N-(3-methyl-1,1-dioxidotetrahydrothiophen-3-yl)-1-(thiazol-4-yl)-1H-indazole-6-carboxamide] | 285
13 | CC1(NC(=O)c2ccc3c(-c4ccccc4Cl)nn(C4CCCCO4)c3c2)CCS(=O)(=O)C1 (stereo not shown) [Example 191, 3-(2-Chlorophenyl)-N-(3-methyl-1,1-dioxidotetrahydrothiophen-3-yl)-1-(tetrahydro-2H-pyran-2-yl)-1H-indazole-6-carboxamide] | 182

Continued, values first:

Row | IC50 [nM] | SMILES
14 | 180 | O=C1CC(NC(=O)c2ccc3c(-c4ccccc4Cl)nn(-c4ccc(F)cc4)c3c2)C1 [Example 104, 3-(2-chlorophenyl)-1-(4-fluorophenyl)-N-(3-oxocyclobutyl)-1H-indazole-6-carboxamide]
15 | 139 | N#CC1(NC(=O)c2ccc3c(-c4ccccc4Cl)nn(-c4ccc(F)cc4)c3c2)CC1 [Example 105, 3-(2-chlorophenyl)-N-(1-cyanocyclopropyl)-1-(4-fluorophenyl)-1H-indazole-6-carboxamide]
16 | 134 | O=C(N[C@H](CO)Cc1ccccc1)c1ccc2c(-c3ccccc3Cl)nn(-c3ccc(F)cc3)c2c1 [Example 110, N-[(1S)-1-benzyl-2-hydroxyethyl]-3-(2-chlorophenyl)-1-(4-fluorophenyl)-1H-indazole-6-carboxamide]
17 | 7 | CC1(NC(=O)c2ccc3c(-c4cccc(C#N)c4)nn(-c4ccc(F)cc4)c3c2)CCS(=O)(=O)C1 (stereo not shown) [Example 117, 3-(3-cyanophenyl)-1-(4-fluorophenyl)-N-(3-methyl-1,1-dioxidotetrahydrothiophen-3-yl)-1H-indazole-6-carboxamide]
18 | 5.5 | N#Cc1ccc(Cl)c(-c2nn(-c3ccc(F)cc3)c3cc(C(=O)NC4(CO)CCC4)ccc23)c1 [Example 118, 3-(2-chloro-5-cyanophenyl)-1-(4-fluorophenyl)-N-[1-(hydroxymethyl)cyclobutyl]-1H-indazole-6-carboxamide]
19 | 4.4 | CC(C)[C@@H](CO)NC(=O)c1ccc2c(-c3cccc(C4CC4)c3)nn(-c3ccc(F)cn3)c2c1 [Example 124, 3-(3-cyclopropylphenyl)-1-(5-fluoropyridin-2-yl)-N-[(1S)-1-(hydroxymethyl)-2-methylpropyl]-1H-indazole-6-carboxamide]
